Data as given in patent EP4772497A1, “POLYMORPHS OF NITROGEN-CONTAINING HETEROCYCLIC COMPOUNDS, AND USES THEREOF” (BNH Research Co., Ltd., priority 2023, dated 2025).
Converted amounts (≈) assume the structure as drawn.

What was measured:
[1] = Competitive equilibrium experiments for crystalline forms A and C (XRPD, DSC); format: physicochemical; conditions: forms A and C slurried in acetone, acetonitrile, ethyl acetate, isopropyl acetate, acetone/water (35:65) at 5°C, 25°C, 50°C for 1 week
Protocol: Competitive equilibrium experiments were performed in various solvent systems to determine the relative stability of crystalline forms A and C.
About 15 mg of crystalline form A and 15 mg of crystalline form C were added to 0.2 mL of a saturated solution of each of selected solvents (acetone, acetonitrile, ethyl acetate, isopropyl acetate, and acetone/water (v:v=35:65)) (Table 9). The obtained suspensions were stirred at 5°C, 25°C, and 50°C, respectively, for 1 week. The solid portion (wet cake) was isolated by centrifugal filtration and analyzed by XRPD and DSC, and the results are shown in Figs. 7a to 7f.

[2] = Parallel artificial membrane permeability assay (PAMPA) for BBB permeability; format: in vitro ADME
Protocol: • PAMPA: PMBBB-096 Kit • Assay format: 96-well plate • Reference substance: Imipramine (H) (10 µM) • Test substance concentration: 10 µM • Number of replicates: 3 • Reaction time: 6 hours at 25°C on a shaker (75 - 80 rpm) • Analytical method: LC-MS/MS • Data processing: Pe (cm/s)
The test compounds (crystalline forms A and C) were dissolved in DMSO at a concentration of 10 mM […] to prepare standard solutions. Next, dried brain lipids were resuspended in 600 µL dodecane to prepare a BBB lipid solution in dodecane. Pipetting up and down was repeated (~100 times) until all dried brain lipids were dissolved (vortexing or sonication may be helpful). A 10 µM reaction solution in PBS containing 5% DMSO was prepared.
The experiments were conducted in a 96-well plate using the prepared reaction solution of each test compound and the BBB lipid solution according to the following assay procedure. • 1. 500 µL of a 500 µM test compound solution (prepared by mixing 25 µL of a 10 mM test compound + 475 µL of PBS (pH 7.2) in DMSO) was prepared in a separate centrifuge tube. When a permeability control was used, it was diluted to 500 µM using PBS (prepared by mixing 25 µL of permeability control + 475 µL of PBS (pH 7.2)). • 2. For each test compound and control, a 200 µM equilibrium standard was prepared in a separate tube (by mixing 80 µL of 500 µM test compound or control with 120 µL of PBS (pH 7.2)). […] The absorbance spectrum from 200 nm to 500 nm was measured at 10 nm intervals to determine the peak absorbance of the test compounds. […] The peak absorbances of the high-permeability and low-permeability controls are 250 nm and 270 nm, respectively.
For the compounds and permeability controls, the permeability rate (Pe) was determined using the following equation: Pe = C × −ln(1−(ODA)/(ODE))cm/s [formula]
Here, ODA is the absorbance of the acceptor solution minus the blank, and ODE is the absorbance of the equilibrium standard minus the blank. For each absorbance value, the peak absorbance determined for each test was used. […]

[3] = Dry grinding simulation experiment (XRPD); format: physicochemical; conditions: manually ground for 1, 3, and 5 minutes, mortar and pestle
Protocol: About 5 mg of crystalline form C was manually ground for 1, 3, and 5 minutes using a mortar and pestle. Potential changes in form and crystallinity were evaluated by XRPD.
The XRPD results of the dry grinding simulation experiments are shown in Fig. 11, where GSE1, GSE2, and GSE3 represent experiment IDs for grinding for 1 minute, 3 minutes, and 5 minutes, respectively.

[4] = Compression simulation experiment (XRPD); format: physicochemical; conditions: compressed for 5 minutes at 2 MPa, 5 MPa, and 10 MPa
Protocol: About 5 mg of crystalline form C was compressed for 5 minutes at 2 MPa, 5 MPa, and 10 MPa using a hydraulic press. Potential changes in form and crystallinity were evaluated by XRPD.
The XRPD results of the compression simulation experiments are shown in Fig. 10, where CSE1, CSE2, and CSE3 represent experiment IDs for pressures of 2 MPa, 5 MPa, and 10 MPa, respectively.

[5] = Wet granulation simulation experiment (XRPD); format: physicochemical; conditions: ground, dried 10 minutes
Protocol: Water or ethanol was added dropwise to about 10 mg of crystalline form C until it was sufficiently wetted. The wet sample was gently ground using a mortar and pestle. After the granulation, the sample was dried under ambient conditions for 10 minutes. Potential changes in form and crystallinity were evaluated by XRPD.
The XRPD results of the wet granulation simulation experiments are shown in Fig. 12, where GNSE1 and GNSE2 represent experiment IDs for water and ethanol, respectively.

[6] = Approximate solubility of crystalline form C in dissolution media by visual observation; format: physicochemical; conditions: thermodynamic from solid, 37°C per table caption (method: 25°C)
Protocol: About 4 mg of crystalline form C was weighed into a 4 mL or 8 mL glass vial, and 4 to 9 mL of dissolution medium was added to dissolve the drug substance at 25°C. The approximate solubility was determined by visual observation.
The solvents and solubility results are shown in Table 11 (solubility of crystalline form C at 37°C).

## C[C@@H]1CC[C@H](C(=O)O)CN1C(=O)Cc1ccc(F)cc1Cl [Crystalline form C, (3S,6R)-1-(2-(2-chloro-4-fluorophenyl)acetyl)-6-methylpiperidine-3-carboxylic acid]
[1]
  relative stability of crystalline forms A and C: most thermodynamically stable crystalline form below 50 °C
[2]; BBB lipid membrane, PBS (pH 7.2)
  PAMPA Pe: 11.79 10^-9 cm/sec
[2]; PAMPA
  BBB permeability, comparison of forms: superior BBB permeability compared to crystalline form A
[3]
  change in form and crystallinity on grinding: no change in form, but its crystallinity decreased significantly
[4]
  change in form and crystallinity on compression: without any change in form or apparent decrease in crystallinity
[5]; wetted with ethanol
  change in form and crystallinity on granulation with ethanol: no change in form, but its crystallinity decreased significantly
[5]; wetted with water
  change in form and crystallinity on granulation with water: without any change in form or apparent decrease in crystallinity
[6]; aqueous buffer, ES2: pH 4.5 acetate buffer (50mM)
  solubility: 900 to 1000 µg/mL (≈ 2.87 to 3.19 mM)
[6]; aqueous buffer, ES3: pH 6.8 phosphate buffer (50mM)
  solubility: 1800 to 2000 µg/mL (≈ 5.74 to 6.37 mM)
[6]; simulated gastric fluid, ES1: pH 1.2 HCl buffer (0.2N)
  solubility: 500 to 600 µg/mL (≈ 1.59 to 1.91 mM)
[6]; simulated gastric fluid, ES4: SGF, pH 2.0
  solubility: 400 to 500 µg/mL (≈ 1.27 to 1.59 mM)
[6]; ES5: FaSSIF-v1, pH 6.5
  solubility: 1800 to 2000 µg/mL (≈ 5.74 to 6.37 mM)
[6]; ES6: FeSSIF-v1, pH 5.0
  solubility: 1800 to 2000 µg/mL (≈ 5.74 to 6.37 mM)
[6]; ES7: Water
  solubility: 600 to 700 µg/mL (≈ 1.91 to 2.23 mM)
